Measurements reported in patent US12692232B2, “Indole carboxamide compound, preparation therefor and use thereof” (NANJING RUISHUNING MEDICAL TECHNOLOGY CO., LTD., priority 2021, dated 2026).

What was measured:
[1] = tested on: H22 liver subcutaneous transplanted tumor; experiment: Mouse model of H22 liver subcutaneous transplanted tumor; type: in vivo
Procedure: The method was as follows:
Experimental procedure: H22 hepatoma cell suspension was adjusted to 1×10^7/mL after dilution and counting with normal saline, and 0.2 mL per mouse was inoculated on the back of the mice. After 24 hours, the mice were weighed and administered drug at a dose of 0.1 mL/10 g once a day, wherein the mice in the solvent control group and the treatment groups were administered 0.9% sodium chloride solution and the compound of the present invention, respectively, for 14 days, and the mice in the CTX group were injected intraperitoneally for 14 days. The mice were weighed after 14 days. The animals were executed and the tumor blocks were removed and weighed separately. The tumor inhibition rate was calculated according to the following formula: tumor inhibition rate (%)=(1−average tumor weight in a treatment group/average tumor weight in the solvent control group)×100%.

[2] = molecular target: T1, TRPC6 channel (Homo sapiens, UniProt Q9Y210); experiment: IC50 on TRPC6 channel-mediated Ca2+ entry in HEK293hTRPC6 cells; type: cell-based; set-up: expressed in transfected cells; host or cells: HEK293 (lentiviral transduction, puromycin selection); details: HEK293hTRPC6, OAG 80 μM, Ca2+ 2 mM
T1 sequence (Q9Y210 1-931): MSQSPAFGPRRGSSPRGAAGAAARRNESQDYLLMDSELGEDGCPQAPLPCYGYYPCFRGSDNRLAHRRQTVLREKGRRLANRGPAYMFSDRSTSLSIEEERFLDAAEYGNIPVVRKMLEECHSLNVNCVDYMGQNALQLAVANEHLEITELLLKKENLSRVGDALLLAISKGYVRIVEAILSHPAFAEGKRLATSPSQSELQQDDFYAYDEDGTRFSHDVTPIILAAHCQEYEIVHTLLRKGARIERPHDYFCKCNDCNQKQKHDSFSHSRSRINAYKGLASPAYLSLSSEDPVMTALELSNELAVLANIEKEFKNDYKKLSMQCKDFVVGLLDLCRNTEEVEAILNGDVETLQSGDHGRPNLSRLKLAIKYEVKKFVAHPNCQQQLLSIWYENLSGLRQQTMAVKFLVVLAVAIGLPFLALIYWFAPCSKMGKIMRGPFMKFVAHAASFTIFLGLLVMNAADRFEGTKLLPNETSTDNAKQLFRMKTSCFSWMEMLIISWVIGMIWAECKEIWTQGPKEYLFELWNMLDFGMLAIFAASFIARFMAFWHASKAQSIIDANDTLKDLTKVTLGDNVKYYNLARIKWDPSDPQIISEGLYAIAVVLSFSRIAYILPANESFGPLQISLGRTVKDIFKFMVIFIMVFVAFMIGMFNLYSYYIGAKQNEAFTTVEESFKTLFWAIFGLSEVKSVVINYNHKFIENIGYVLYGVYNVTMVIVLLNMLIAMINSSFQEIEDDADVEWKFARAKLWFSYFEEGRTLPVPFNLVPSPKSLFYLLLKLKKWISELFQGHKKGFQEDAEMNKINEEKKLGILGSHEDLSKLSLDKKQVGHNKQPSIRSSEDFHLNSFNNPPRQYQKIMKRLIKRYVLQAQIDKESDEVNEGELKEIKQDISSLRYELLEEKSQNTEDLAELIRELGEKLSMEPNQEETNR
Procedure: The half maximal inhibitory concentrations (IC50) of the compounds of the present invention (as exemplified by Compound 1-1 obtained in Example 1) on TRPC6 channel-mediated Ca^2+ entry were determined using HEK293hTRPC6, a tool cell overexpressing TRPC6 protein. Methods were as follows: HEK293hTRPC6, a tool cell overexpressing TRPC6 protein, was established in the same manner as in Example 7.
Determination of the effect of compounds on changes in intracellular calcium ion concentration in HEK293hTRPC6 cells: the mother solution of the compounds was diluted to the following concentrations, 0.1 nM, 0.3 nM, 1 nM, 3 nM, 10 nM, 30 nM, 100 nM, 300 nM, 1,000 nM, and 3,000 nM, respectively, using cell culture medium. […] The crawls were placed in the center of the bath, perfused with calcium-free Tyrode's solution for 5 min and fixed on the stage of an inverted fluorescence microscope. […] Fluorescence intensity was measured at different excitation wavelengths (340 nm, 380 nm) using a TILL Ion Imaging System (TILLvisION), and the value of fluorescence intensity emitted by intracellular fluorescent probe at different excitation wavelengths was substituted into the formula: [Ca^2+]i=Kd×β×(R−Rmin)/[…]. […] Dose-effect curves were fitted using GraphPad Prism software and the IC50 was calculated.

Cn1c(C(=O)NCCC(=O)O)cc2ccccc21 [3-[(1-methyl-1H-indole-2-carbonyl)amino]propionic acid, reference compound]
tumor inhibition rate ([1]; 25 mg/kg once a day 14 days): 52.8% | IC50 [2]: 24.1 nM

CC(=O)OCCCNC(=O)c1c(C=O)c2ccccc2n1C [compound 1-1, propyl 3-[(3-formyl-1-methyl-1H-indole-2-carbonyl)amino]acetate]
tumor inhibition rate ([1]; 25 mg/kg once a day 14 days): 60.5% | tumor inhibition rate ([1]; 50 mg/kg once a day 14 days): 69.4% | IC50 [2]: 11.4 nM
